Columns and labels:
Assay type in all cases: in vivo, human
[1] = tested on: healthy, young male and female adults; experiment: Bond-Lader mood scales
Method: (§1) In the current double-blind, placebo-controlled, balanced cross-over experiment we assessed the effects of single doses of LC (500 mg and 2000 mg) and ALC (1000 mg), administered on separate occasions, on mental fatigue and cognitive function during extended performance of mentally demanding tasks in healthy, young male and female adults.
(§2) 20 healthy adults (10 male, 10 female, 18 to 25 years) who had not taken prescription or illicit drugs or any food supplements within the preceding 4 weeks were recruited. Smokers and excessive consumers of caffeine were excluded, as were those who had consumed alcohol or caffeine within the 12 hours prior to a testing session.
Prior to and following the tasks mood was assessed with Bond and Lader scales. This measure has been utilised in numerous pharmacological, psychopharmacological and medical trials. The scales comprise a total of sixteen lines (approximately 100 mm on screen) anchored at either end by antonyms (e.g. alert-drowsy, calm-excited). Subjects indicate their current subjective position between the antonyms on the line. Individual item scores were calculated as % distance along the line. Outcomes comprised three factor analysis derived scores: ‘Alertness’, ‘Calmness’ and ‘Contentment’.
(§3) Following the introductory visit participants attended the laboratory at 8.30 am on four further occasions, one week apart, receiving a different treatment on each occasion. They fasted (no food or drink except for water) and consumed no caffeine or alcohol for at least 12 hours prior to each session. On their first study day participants were randomly allocated to a treatment regime on the Latin square. On arrival on each occasion participants consumed a standard breakfast (40 g Kellogg's All-bran with 150 ml skimmed milk and a glass of water) following which they undertook an initial cognitive/mood assessment comprising completion of the attention tasks (‘Simple’/‘Choice’/‘Four choice’ reaction time) followed by 2 completions of the 10 minute CDB tasks (the first completion was a practice and the second was used for baseline assessment of performance) and the Stroop and Logical Reasoning tasks. They then consumed their treatment for that day. At 120 minutes post-dose they completed the attention tasks then commenced the full 60 minute (i.e. 6 completions of the 10 minutes of tasks) CDB. Following completion of the CDB participants completed the ‘Logical Reasoning’ and the ‘Stroop’ executive function tasks. Mood was assessed with Bond-Lader mood scales pre-treatment and before and after the post-treatment cognitive assessment. The set-up is shown schematically in FIG. 1.
(§4) Statistical analysis for all of the cognitive/fatigue and mood measures derived from the battery were analysed by repeated measures Analysis of Variance (ANOVA) of baseline adjusted data (calculated against pre-dose). Measures with a single post-dose repetition (attention tasks, executive tasks) were analysed by one way ANOVA (condition). Measures with multiple post-dose repetitions (Mood, CDB) were analysed with two way ANOVA (condition×repetition). Planned comparisons (placebo versus each active treatment) were then undertaken on baseline adjusted data from the single completion, or each of the multiple completions, as appropriate, utilising t-tests with Mean Squares Error from the ANOVA (Keppel 1991).

[2] = tested on: healthy, young male and female adults; experiment: Cognitive Demand Battery (CDB), overall performance; conditions: for Beneficial effect on fatigue / cognitive function, overall statement: general statement, preliminary findings for acetyl-L-carnitine
Description: The working hypothesis underlying this approach is that neural activity is costly in terms of local neural resources (e.g. metabolic substrates) and that the brain is therefore liable to suffer deficiencies in the short term. Any psychoactive properties of a test substance are therefore liable to be more readily apparent during this period of intense cognitive demand and the ‘mental fatigue’ state elicited by prolonged task performance. This paradigm may therefore be more sensitive than the use of less demanding cognitive tasks, particularly if an intervention has an impact on the delivery or utilisation of metabolic substrates.
as §1, §2
Each participant received each treatment in an order counterbalanced by random allocation to a Latin square. Depending on the condition to which the participant was allocated on each day they received 4 capsules containing either 500 mg LC or 500 mg ALC or a placebo which were combined to give a total dose of either:
(§5) The objective of this battery is to assess the impact of a treatment on speed/accuracy and mental fatigue during continuous performance of cognitively demanding tasks. […] The 10 minute battery comprises:
as §3, with “Following completion of the CDB participants completed the ‘Logical Reasoning’ and the ‘Stroop’ executive function tasks.” left out, “The set-up is shown schematically in FIG. 1.” left out
(§6) Statistical analysis for all of the cognitive/fatigue and mood measures derived from the battery were analysed by repeated measures Analysis of Variance (ANOVA) of baseline adjusted data (calculated against pre-dose). Measures with a single post-dose repetition (attention tasks, executive tasks) were analysed by one way ANOVA (condition). Measures with multiple post-dose repetitions (Mood, CDB) were analysed with two way ANOVA (condition×repetition). […]

[3] = tested on: healthy, young male and female adults; experiment: Cognitive Demand Battery: Rapid Visual Information Processing task (RVIP)
Method: as §1, §2, §5
The participants monitored a continuous series of digits for targets of three consecutive odd or three consecutive even digits. The digits were presented at the rate of 100 per minute and the participants responded to the detection of a target string by pressing a response key as quickly as possible. The task is continuous and lasts for 5 minutes, with 8 correct target strings being presented in each minute. The task was scored for percentage of target strings correctly detected, average reaction time for correct detections, and number of false alarms.
as §3, §4

[4] = tested on: healthy, young male and female adults; experiment: Cognitive Demand Battery: subjective 'mental fatigue' scale
Method: as §1, §2, §5
At the end of each set of tasks participants were asked to indicate how mentally fatigued they felt by marking a 100 mm line with the end-points labelled “not at all” and “extremely”.
as §3, with “Following completion of the CDB participants completed the ‘Logical Reasoning’ and the ‘Stroop’ executive function tasks.” left out, “The set-up is shown schematically in FIG. 1.” left out
as §6

[5] = tested on: healthy, young male and female adults; experiment: Cognitive Demand Battery: Serial Sevens subtractions
Method: as §1, §2, §5
Modified, two minute, computerised versions of the Serial Threes and Serial Sevens tests were utilised. […] The task was scored for total number of subtractions and number of errors. In the case of incorrect responses, subsequent responses were scored as positive if they were correct in relation to the new number.
Following the introductory visit participants attended the laboratory at 8.30 am on four further occasions, one week apart, receiving a different treatment on each occasion. […] Mood was assessed with Bond-Lader mood scales pre-treatment and before and after the post-treatment cognitive assessment. […]
as §6

[6] = tested on: healthy, young male and female adults; experiment: Cognitive Demand Battery: Serial Threes subtractions
Method: as §1, §2, §5
Modified, two minute, computerised versions of the Serial Threes and Serial Sevens tests were utilised. For both tasks a standard instruction screen informed the participant to count backwards in threes or sevens from the given randomly generated number, as quickly and accurately as possible, using the linear number keys to enter each response. Participants were also instructed verbally that if they made a mistake they should continue subtracting from the new, incorrect number. Each three-digit response was entered using the linear number keys on the keyboard with each digit being represented on screen by an asterisk. Pressing the enter key signals the end of each response and clears the three asterisks from the screen. The task was scored for total number of subtractions and number of errors. In the case of incorrect responses, subsequent responses were scored as positive if they were correct in relation to the new number.
as §3, with “Following completion of the CDB participants completed the ‘Logical Reasoning’ and the ‘Stroop’ executive function tasks.” left out, “The set-up is shown schematically in FIG. 1.” left out
as §6

[7] = tested on: healthy male and female individuals aged between 20 and 40 years; experiment: CogState 12 minute Early Phase cognitive test battery
Method: Effects of carnitine on cognitive function were studied with a CogState™ 12 minute Early Phase cognitive test battery. The test was developed by CogState, US, and is described in U.S. Pat. No. 7,163,513 B2. The test uses playing cards and computer mazes for measuring the cognitive domains of executive function, psychomotor function, visual attention and visual learning. Tasks correspond to cognitive domains as follows: Maze learning task. […] It was carried out with 20 healthy male and female individuals aged between 20 and 40 years. The test was double-blind and placebo-controlled and studied effects of 500 mg L-carnitine, administered as 736 mg L-carnitine L-tartrate (Carnipure™ tartrate, Lonza AG) in water in a single dose. A single test battery of about 10 min comprised maze learning task, a detection task with playing cards, an identification task with playing cards and a one card learning task. Consecutive accomplishing of the test battery took place twice prior to and hourly after intake of the study preparation over a period of 6 hours.

[8] = 500 mg single dose in water, hourly over 6 hours

CC(=O)O[C@H](CC(=O)[O-])C[N+](C)(C)C [ALC, acetyl-L-carnitine]
Bond-Lader content rating compared to placebo ([1]; 1000 mg single dose, after the post-dose tasks, p=0.015): less content
Bond-Lader content rating compared to placebo ([1]; 1000 mg single dose, before the post-dose tasks, p=0.001): less content
Bond-Lader alert rating compared to placebo ([1]; 1000 mg single dose, before undertaking the post-dose tasks, p=0.009): less alert
Bond-Lader alertness (summary of findings) ([1]; 1000 mg single dose, second post-dose time-point as printed): lower levels of alertness
Performance of the CDB in comparison to placebo ([2]; 1000 mg single dose): no evidence of benefits
Beneficial effect on fatigue / cognitive function, overall statement [2]: at best moderate

C[N+](C)(C)C[C@H](O)CC(=O)[O-] [LC, L-carnitine]
Bond-Lader content rating compared to placebo ([1]; 500 mg single dose, first (pre-task) post-dose assessment, p=0.004): less content
Bond-Lader calm rating compared to placebo ([1]; 500 mg single dose, first (pre-task) post-dose assessment, p=0.037): less calm
Bond-Lader calm rating compared to placebo ([1]; 500 mg single dose, post task assessment, p=0.016): more calm
Performance of the CDB in comparison to placebo ([2]; 500 mg single dose, planned comparisons): significant improvements in performance of the CDB
Performance of the CDB in comparison to placebo ([2]; 2000 mg single dose): no evidence of benefits
Beneficial effect on fatigue / cognitive function, overall statement [2]: pronounced
RVIP accuracy compared to placebo ([3]; 500 mg single dose, 2nd repetition, p=0.015): outperformed placebo
RVIP speed of responses compared to placebo ([3]; 500 mg single dose, 3rd repetition, p=0.013): performed faster
RVIP accuracy compared to placebo ([3]; 500 mg single dose, 3rd repetition, p=0.036): outperformed placebo
RVIP accuracy compared to placebo ([3]; 500 mg single dose, 4th repetition, p=0.07): trend towards the same effect
RVIP speed of responses compared to placebo ([3]; 500 mg single dose, each of 6 repetitions, significant only at the 3rd): performed faster at each repetition
RVIP speed of responses compared to placebo ([3]; 2000 mg single dose, 4th repetition, p=0.089): trend towards slower responding
Subjective mental fatigue rating compared to placebo ([4]; 500 mg single dose, 4th repetition, p=0.065): trend towards the same effect
Subjective mental fatigue rating compared to placebo ([4]; 500 mg single dose, 6th repetition, p=0.033): ratings of fatigue were lower
Subjective mental fatigue rating compared to placebo ([4]; 500 mg single dose, after each repetition, numerical, significant only after the last set): numerically less ‘mentally fatigued’
Subjective mental fatigue rating compared to placebo ([4]; 2000 mg single dose, 5th repetition, p=0.02): higher than placebo
Serial 7s number of subtractions compared to placebo ([5]; 500 mg single dose, 2nd repetition, p=0.044): more subtractions
Serial 7s number of subtractions compared to placebo ([5]; 500 mg single dose, 4th repetition, p=0.018): more subtractions
Serial 7s number of subtractions compared to placebo ([5]; 2000 mg single dose, 4th repetition, p=0.053): trend towards more subtractions
Serial 3s number of subtractions compared to placebo ([6]; 500 mg single dose, 2nd repetition, p=0.08): statistical trends towards the same effect
Serial 3s number of subtractions compared to placebo ([6]; 500 mg single dose, 3rd repetition, p=0.09): statistical trends towards the same effect
Serial 3s number of subtractions compared to placebo ([6]; 500 mg single dose, 4th repetition, planned comparison p=0.006): more subtractions
Serial 3s number of subtractions compared to placebo ([6]; 500 mg single dose, 6th repetition, p=0.016): more subtractions
Serial 3s number of subtractions compared to placebo ([6]; 2000 mg single dose, 5th repetition, p=0.04, may be type 1 error): more subtractions
Psychomotor function (detection task) ([7]; 500 mg single dose in water, after four, five and six hours): decrease of psychomotor function
Higher cognitive processes, such as memory and executive function ([7]; 500 mg single dose in water, at the time of decreased psychomotor function (4-6 hours)): not impaired
Visual attentional function (identification task) [7, 8]: no significant effect
Visual learning (one card learning task) [7, 8]: no significant effect
Executive function (maze learning task) ([7]; 500 mg single dose in water, two hours after intake, individuals without fatigue): some evidence for a short-acting benefit
Long time improvement of cognitive function ([7]; 500 mg single dose, beyond approximately two hours): not observed

— patent US10130602B2, “Use of L-carnitine, salts and derivatives thereof for reducing or preventing fatigue and improving cognitive function” (priority 2011, dated 2018)
